{"source": "patent US20220233503A1", "about": "“METHODS OF TREATING SEPSIS WITH SYNAPTIC VESICLE 2A AND/OR 2B BINDING CHEMICAL ENTITIES” (INSTITUT PASTEUR, priority 2016, published 2022)", "key": {"microglial cells": {"tested_on": "microglial cells", "assay": "Morphological analysis of microglial cells (Iba-1 staining) after sepsis", "format": "in vivo, mice", "description": "Immunohistochemistry: Mice were perfused through left ventricule with paraformaldehyde 4% and the collected brains with small forceps. Brain were fixed overnight with PFA 4% and then cut in 100 μm sagittal slices with a vibratome VT1200S (Leica, Germany). Ionized calcium binding adaptor type 1 immunohistochemistry. Brain sections were washed with PBS and aspecific binding sites were saturated with a bovine serum albumine 3% in PBS solution for 4 hours. Then primary antibody (Rabbit, Wako, 40 ng/μl) was applied for 24 hours at 4° C. under constant agitation. Cyanine 3 secondary antibody (Donkey anti-Rabbit) and Hoechst 33342 (1/4000) was then applied overnight at 4° C. with constant agitation.\nImaging of samples was realized in a medium throughput spinning disk confocal microscope (CV1000) on 5×5 mozaics reconstructed with an overlap of 50% to avoid signal intensity lowering on the edge of tiles. Stitching was realized using a homemade macro with the Grid/collection plugin for Fiji channel by channel and then manually realligned if necessary. Automated analysis of microglial cell was realized on Iba1 staining. Automatic local contrast thresholding using Phanshalkar algorithm with a radius of 2 μm was performed for microglia channel, and with a radius of 12 μm for nuclei channel. Microglial cells were identified using a fixed empirical threshold for percentage of perinuclear area stained by Iba-1 using thresholded image. Only individual microglial cells obtained after segmentation with a tridimensionnal watershed algorithm were furthered considered for analysis. Morphometric study of microglial cells were performed using mcib3d plugin for FIJI. Concentric envelopes were computed starting 1 μm after nuclear envelope to analyze the number of microglial process crossing this sphere and reproduce a conformational tridimensional analysis on microglial cells.\nIndividual and summarized data were then analyzed in R statistics. Area under the curve of number of microglial processes. When covariant variables were identified, the most relevant was considered.\nFIG. 3 (G, H, I). […]"}, "[1]": {"tested_on": "Inducible NO synthase gene (inos)", "format": "cell-based, murine", "conditions": "24 hours", "description": "NO: 53) and anti-sense primer:[…] NO: 54). […] ID NO: 55) and anti-sense primer […] NO: 56). […] NO: 57) and anti-sense primer:[…] NO: 58)."}, "[2]": {"tested_on": "CD11b positive cells (microglial cells)", "assay": "mRNA expression of M1/M2 markers and cytokines in sorted CD11b positive cells after sepsis", "format": "in vivo, mice", "description": "RNA Purification: Total brains or mircodissected brain under binoccular magnifier were collected in liquid nitrogen and stored at −80° C. before processing. Tissues were unfrosted in 1 ml of Qiazol (Qiagen, Nederland) and shredded using a TissueLyzer II and metallic beads (Qiagen, Nederland). Two hundred microlitters of chloroform (Merck, Darmstadt, Deutschland) were added before spinning for 15′ at 4° C.-20 000 rpm. The upper aqeuous phase was collected and purified using RNEasy Minikit with a DNAse step (Qiagen, Nederland) to remove any remaining genomic DNA. Purified RNA were quantified and a reverse transcription on 500 ng of RNA using SuperScript® II Reverse Transcriptase (Life Technologies) was realized. Quantitative real time polymerase chain reaction was performed on 10 ng cDNA with SYBR® Select Master Mix (Roche, Franche) following manufacturer's recommandation on a StepOne™ Real-Time PCR System (Life Technologies) and results were analyzed on StepOne softwares. Triplicates with a Cycle Threshold standard deviation <0.2 were considered for further analyzes. ΔΔCT method was used to quantify fold increases between animals from different groups to control group mean. The following primers were used.\nDatas are presented as mean±SEM compared to septic placebo group set at 1."}, "CLP mice [3]": {"tested_on": "CLP mice", "assay": "Morris water maze after sepsis", "format": "in vivo", "description": "(§1) Comportemental tests: Every comportemental tests were started 15 days after sepsis induction. The experimentator was blinded to the experimental group.\nMorris Water Maze was realized as described by Vorhees et al. Nature Protocols 2006. It consisted in a phase of spatial learning and a probe trial. During the first phase the animal learns spatial position of a platform (11 cm diameter) hidden in a swimming pool (120 cm diameter) with opaque water relatively to cues placed on the water tank and in the experimental room. The animal is released in a random quadrant 4 times per day during 7 days. The distance (cm) before reaching the platform, the latency (s) and the proportion of time spent in each quadrant is measured. After each day the learning curve of mice reaching the platform is drawn. If this curve reached a plateau, the probe trial is realized the next day. Probe trial consists in a recall of the spatial reference memory.\n(§2) Figures J-M. Morris water Maze test (MWM) and Novel Object Location/Recognition tests."}, "CLP mice [4]": {"tested_on": "CLP mice", "assay": "Novel object location/recognition tests after sepsis", "format": "in vivo", "conditions": "septic mice, treated or not", "description": "as §1\nNovel Object Recognition Test: Tests comprise three phases: habituation, familiarization and test phase. During the first 20 minutes animals were placed in a transparent arena under a 100 lux light that had three compartments separated with one-holed plexiglass walls. Two objects were used (a plastic power plug and a brass bolt). During the next 10 minutes two similar objects (A,A) were placed in the lateral compartments. We considered that mice were exploring the objects when they were climbing or explore it with their nose. Immediately after mice were replaced in the center of arena and two new objects (A,B) were placed in the compartments. The ratio of time spent exploring objects A and ratio of time exploring object AB were compared.\nas §2"}, "TNF alpha, IL1 beta": {"tested_on": "TNF alpha, IL1 beta", "assay": "ELISA assay on brain parenchyma after sepsis", "format": "in vivo, mice", "conditions": "during sepsis", "experimental": "FIG. 3C—An ELISA assay was performed on brain parenchyma to detect lower changes in cytokine concentration."}, "[5]": {"tested_on": "peripheral nervous system", "conditions": "septic rats, single dose of 300, 600 or 1200 mg/kg one hour after surgery; cited from earlier work"}, "[6]": {"tested_on": "pro- and anti-inflammatory cytokine levels in brain parenchyma", "assay": "Cytokine multiplex in brain parenchyma after sepsis", "format": "in vivo, mice", "conditions": "24 hours after sepsis induction", "experimental": "Cytokine multiplex: Brain samples were weighed and unfrosted in 100 μl of extraction buffer (PBS 1×, complete protease inhibitor, sigma-aldrich, triton 0.1%) processed in 2 ml Lysing Matrix A tubes with FastPrep-24 (MP biomedicals, Germany). Tubes were centrifuged at 20000 g at 4° C. and supernatant was collected and protein concentration was determined with light absorbance at 280 nm using a Nanodrop Lite Spectrophotometer (Thermo Scientific). […] Cytokines were measured using a Bio-Plex System and Mouse Cytokine Standard 23-Plex Group 1 kit following manufacturer's recommendations. Raw datas were analyzed by dividing the concentration of cytokine with protein concentration in lyzate and weight of sample measured on precision balance. Then every cytokine concentrations are presented as a ratio compared to the untreated sepsis group."}, "[7]": {"conditions": "cited from earlier work"}, "[8]": {"tested_on": "rats treated to model traumatic brain injury", "conditions": "54 mg/kg or 170 mg/kg single perfusion 15 minutes after injury; cited from earlier work"}, "[9]": {"conditions": "CD11b positive cells, 24 hours after sepsis, vs placebo"}}, "note": "Like-named read-outs stand apart in the source and are kept apart here."}
{"smiles": "CC[C@@H](C(N)=O)N1CCCC1=O", "note": "(single isomer, unassigned) [levetiracetam]", "values": [{"measurement": "principal components of microglial morphology", "setting": "microglial cells; 4 main components of 107 morphological criteria, septic mice", "value": "different"}, {"measurement": "microglial cell morphological changes", "setting": "microglial cells; 6 hours after sepsis, CeA and B1A", "value": "decreased"}, {"measurement": "number of microglial cell processes", "setting": "microglial cells; 15 days after sepsis", "value": "increased dramatically"}, {"measurement": "inos expression", "setting": "[1]; high dose LPS challenge", "value": "failed to modulate"}, {"measurement": "inos expression", "setting": "[1]; high dose levetiracetam, low dose LPS challenge", "value": "lowered"}, {"measurement": "CD32 transcription", "setting": "[2]; [9]", "value": "increased"}, {"measurement": "CD86 transcription", "setting": "[2]; [9]", "value": "increased"}, {"measurement": "Il 1 beta transcription", "setting": "[2]; [9]", "value": "increased"}, {"measurement": "MCP 1 transcription", "setting": "[2]; [9]", "value": "increased"}, {"measurement": "anti inflammatory markers transcription", "setting": "[2]; [9]", "value": "not increased"}, {"measurement": "microglial cell polarization", "setting": "[2]; microglial cell sorting in whole brain of septic mice", "value": "polarized towards a pro-inflammatory (M1) phenotype"}, {"measurement": "Morris water maze learning to locate the platform (AUC of learning curve)", "setting": "CLP mice [3]; septic mice", "value": "did not present an effect"}, {"measurement": "Morris water maze test day time in platform quadrant", "setting": "CLP mice [3]; test day (probe trial), all groups", "value": "same amount of time"}, {"measurement": "time on novel vs familiar object", "setting": "CLP mice [4]", "value": "same amount of time"}, {"measurement": "TNF alpha expression in brain parenchyma (ELISA)", "setting": "TNF alpha, IL1 beta", "value": "No difference"}, {"measurement": "IL1 beta in brain parenchyma (ELISA)", "setting": "TNF alpha, IL1 beta; p<0.05", "value": "increased"}, {"measurement": "effects on the peripheral nervous system", "setting": "[5]", "value": "broad spectrum of protective and restorative effects"}, {"measurement": "TNF alpha in brain parenchyma (multiplex)", "setting": "[6]; sepsis group treated", "value": "could not be detected"}, {"measurement": "IL4 concentration in brain parenchyma (multiplex)", "setting": "[6]; vs septic mice receiving saline", "value": "increased"}, {"measurement": "solubility in acetonitrile", "setting": "[7]; acetonitrile", "value": 5.7, "unit": "g/100 mL"}, {"measurement": "solubility in chloroform", "setting": "[7]; chloroform", "value": 65.3, "unit": "g/100 mL"}, {"measurement": "solubility in ethanol", "setting": "[7]; ethanol", "value": 16.5, "unit": "g/100 mL"}, {"measurement": "solubility in methanol", "setting": "[7]; methanol", "value": 53.6, "unit": "g/100 mL"}, {"measurement": "solubility in n-hexane", "setting": "[7]; n-hexane", "value": "practically insoluble"}, {"measurement": "solubility in water", "setting": "[7]; water", "value": 104.0, "unit": "g/100 mL"}, {"measurement": "cognitive outcome", "setting": "[8]", "value": "improved"}]}
